Like-named read-outs stand apart in the source and are kept apart here.
Assays:
[1] = system: NCTC clone 929 (strain L) mouse areolar fibroblast cells (L929 cells); conditions: 0.5% DMSO
Description: Polymers and diacids were separately dissolved in dimethyl sulfoxide (DMSO) and diluted with cell media to reach concentrations of 0.10 and 0.05 mg/mL. These solutions were sterilized under UV at λ=254 nm for 900 s (Spectronics Corporation, Westbury, N.Y.) and then allocated to wells in a 96-well plate with 2000 cells/well. DMSO (0.5%) in cell media was used as negative control.
Cell viability was determined using CellTiter 96® Aqueous One Solution Cell Proliferation Assay. After 24 h, 48 h, and 72 h incubation with polymers or diacids, 20 μL of (3-(4,5-dimethylthiazol-2-yl)-5-(3-carboxymethoxyphenyl)-2-(4-sulfophenyl)-2H-tetrazolium) (MTS) reagent was added to each well and further incubated for 2 h at 37° C. The absorbance was then recorded with a microplate reader (Coulter, Boulevard Brea, Calif.) at 492 nm.

[2] = Structure determination of released drugs (1H-NMR of day 5 release media); assay type: physicochemical; conditions: released at day 5, 1H-NMR chemical shifts and integration
Description: Release media from day 5 (time point with the highest drug concentration) were freeze-dried for 24 h at −40° C. and 133×10^−3 mBar (LABCONO Freeze Dry System/Freezon 4.5). The resulting white powder was dissolved in acidic water (5 mL, pH˜1) and extracted with DCM (5×3 mL). DCM was evaporated under reduced pressure and the samples dried under vacuum for 2 days. Solutions of the free drugs (1 and 2) were prepared and treated as described above for the release media. ^1H-NMR spectroscopy was used to confirm the chemical structures of the released drugs.

Structure (SMILES) | cell proliferation / viability ([1]; 0.05 mg/mL, 24, 48 and 72 h) | cell proliferation / viability ([1]; 0.10 mg/mL, 24, 48 and 72 h) | chemical structure of drug released from polymer versus free drug [2]
CC(C)Cc1ccc(C(C)C(=O)OC(C(=O)O)C(OC(=O)C(C)c2ccc(CC(C)C)cc2)C(=O)O)cc1 (stereo not drawn) [6a, Ibuprofen-tartaric diacid] | normal cell proliferation | normal cell proliferation | –
COc1ccc2cc(C(C)C(=O)OC(C(=O)O)C(OC(=O)C(C)c3ccc4cc(OC)ccc4c3)C(=O)O)ccc2c1 (stereo not drawn) [6b, Naproxen-Tartaric Diacid] | normal cell proliferation | normal cell proliferation | –
CC(C)Cc1ccc(C(C)C(=O)O)cc1 (stereo not drawn) [compound 1, ibuprofen] | – | – | preserved
COc1ccc2cc([C@H](C)C(=O)O)ccc2c1 [compound 2, naproxen] | – | – | preserved

From US9144579B2, “Polyesters and methods of use thereof” (Rutgers, The State University of New Jersey, priority 2012, dated 2015)
